For assay [1], the target named is His-tagged KRAS G12D protein (Homo sapiens (Human), UniProt P01116, G12D). Kind of assay: KRAS G12D TR-FRET Assay. It is filed as binding. To be noted: biotinylated KRPep-2d, 10 μM GDP. The protocol: Compounds of interest were prepared in a dose-response titration in DMSO, and 80 nL were added via Labcyte Echo to each well of a 384-well plate (Perkin Elmer 6008280). The His-tagged KRAS G12D protein (Amgen) was diluted to 20 nM in Assay Buffer (20 mM HEPES, pH 7.4, 10 mM MgCl2, 50 mM NaCl, 0.1% BSA, 0.01% Tween-20, 10 μM GDP) and 2 μL was added to the appropriate wells of the 384-well plate. The plate was incubated for 30 minutes at rt. Biotinylated KRPep-2d substrate (Amgen) was diluted to […] in Assay Buffer and 2 AL was added to all wells and incubated for 1 hour at room temperature. Detection Reagent (0.4 nM LANCE Eu-W1024 Anti-6×His (Perkin Elmer AD0401), 5 nM streptavidin-d2 (Cisbio 610SADLA)) was prepared in Assay Buffer, then 4 AL was added to the plate and incubated for 1 h at rt. Plates were read using PerkinElmer En Vision (ex: 320 nm, em1: 665 nm, em2: 615 nm) and em1/em2 data was used to generate curve fits using a 4-parameter logistic model to calculate IC50 values.
Chain of His-tagged KRAS G12D protein (P01116-2 other isoform, or with tags, fused parts or gaps G12D): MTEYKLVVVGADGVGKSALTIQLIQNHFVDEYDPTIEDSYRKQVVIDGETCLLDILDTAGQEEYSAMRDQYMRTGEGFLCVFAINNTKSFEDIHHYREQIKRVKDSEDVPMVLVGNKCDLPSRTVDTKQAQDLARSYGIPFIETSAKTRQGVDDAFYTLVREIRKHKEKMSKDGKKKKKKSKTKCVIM
On the technique in general: In TR-FRET formats the signal depends on donor and acceptor labels being close together.

The target in assay [2] is GDP-bound KRAS protein (aa 1-169), G12D and C118A; SOS-mediated nucleotide exchange (Homo sapiens (Human), UniProt P01116, C118A/G12D). The experiment in a line: KRAS G12D Coupled Nucleotide Exchange Assay. The class given is biochemical. To be noted: 2 h compound pre-incubation, GTP, cRAF AlphaScreen. The method, then: Purified GDP-bound KRAS protein (aa 1-169), containing both G12D and C118A amino acid substitutions and an N-terminal His-tag, was pre-incubated in assay buffer (25 mM HEPES pH 7.4, 10 mM MgCl2, and 0.01% Triton X-100) with a compound dose-response titration for 2 h. Following compound pre-incubation, purified SOS protein (aa 564-1049) and GTP (Roche 10106399001) were added to the assay wells and incubated for an additional 30 min. […] The assay plates were then read on a PerkinElmer En Vision Multilabel Reader, using AlphaScreen® technology, and data were analyzed using a 4-parameter logistic model to calculate IC50 values.
Chain of GDP-bound KRAS protein (aa 1-169), G12D and C118A; SOS-mediated nucleotide exchange (P01116 other isoform, or with tags, fused parts or gaps G12D/C118A): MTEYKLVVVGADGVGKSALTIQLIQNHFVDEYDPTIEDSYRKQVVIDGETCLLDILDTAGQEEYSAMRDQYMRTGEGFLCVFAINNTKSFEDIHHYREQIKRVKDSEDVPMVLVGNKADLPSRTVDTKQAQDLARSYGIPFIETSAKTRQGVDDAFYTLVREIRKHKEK
Background: In Alpha technology, singlet oxygen from a donor bead excites a nearby acceptor bead.

Assay [3] relates to Phosphorylation of ERK1/2 in AsPC-1 cells. Kind of assay: Phospho-ERK1/2 MSD Assay. The class given is cell-based. To be noted: Homo sapiens, ASPC1, 2 h, read-out: 2 h p-ERK (AsPC-1 cells), IC50 (μM), AsPC-1 cells, 2 h compound treatment. The method, then: AsPC-1 (ATCC® CRL-1682TM) cells were cultured in RPMI 1640 Medium (ThermoFisher Scientific 11875093) containing 10% fetal bovine serum (ThermoFisher Scientific 16000044) and 1× penicillin-streptomycin-glutamine (ThermoFisher Scientific 10378016). Sixteen hours prior to compound treatment, AsPC-1 cells were seeded in 96-well cell culture plates at a density of 25,000 cells/well and incubated at 37° C., 5% CO2. A compound dose-response titration was diluted in growth media, added to appropriate wells of a cell culture plate, and then incubated at 37° C., 5% CO2 for 2 hours. Following compound treatment, cells were washed with ice-cold Dulbecco's phosphate-buffered saline, no Ca^2+ or Mg^2+ (ThermoFisher Scientific 14190144), and then lysed in RIPA buffer (50 mM Tris-HCl pH 7.5, 1% Igepal, 0.5% sodium deoxycholate, 150 mM NaCl, and 0.5% sodium dodecyl sulfate) containing protease inhibitors (Roche 4693132001) and phosphatase inhibitors (Roche 4906837001). Phosphorylation of ERK1/2 in compound-treated lysates was assayed using Phospho-ERK1/2 Whole Cell Lysate kits (Meso Scale Discovery K151DWD) according to the manufacturer's protocol. Assay plates were read on a Meso Scale Discovery Sector Imager 6000, and data were analyzed using a 4-parameter logistic model to calculate IC50 values.

We go through 14 compounds from patent publication US20250163064A1, “QUINAZOLINE COMPOUNDS AND USES THEREOF AS INHIBITORS OF MUTANT KRAS PROTEINS” (AMGEN INC., priority 2022, published 2025).

SMILES strings stand for the structures.

As usually defined, the IC50 is the concentration that gives 50% inhibition. For `N#Cc1c(N)sc2c(F)ccc(-c3c(Cl)cc4c(N5CCCC6(CCO6)C5)nc(OC[C@@]56CCCN5C[C@H](F)C6)nc4c3F)c12` (stereo partly drawn) [Example 20, 2-Amino-4-(6-chloro-8-fluoro-2-(((2R,7aS)-2-fluorotetrahydro-1H-pyrrolizin-7a(5H)-yl)methoxy)-4-(1-oxa-6-azaspiro[3.5]nonan-6-yl)quinazolin-7-yl)-7-fluorobenzo[b] thiophene-3-carbonitrile], the IC50 in assay [1] was found to be 22 nM; in assay [2], 26 nM; in assay [3], 1.02 µM.

With `N#Cc1c(N)sc2c(F)ccc(-c3c(Cl)cc4c(N5CCC6CCC(C5)O6)nc(OC[C@@]56CCCN5C[C@H](F)C6)nc4c3F)c12` (stereo partly drawn) [Example 21], the IC50 in assay [1] turned out to be 10 nM; in assay [2], 8 nM; in assay [3] it was 0.532 µM.

As for `N#Cc1c(N)sc2c(F)ccc(-c3c(Cl)cc4c(N5CCCS(=O)(=O)CC5)nc(OC[C@@]56CCCN5C[C@H](F)C6)nc4c3F)c12` [Example 25, 2-Amino-4-(6-chloro-4-(1,1-dioxido-1,4-thiazepan-4-yl)-8-fluoro-2-(((2R,7aS)-2-fluorotetrahydro-1H-pyrrolizin-7a(5H)-yl)methoxy)quinazolin-7-yl)-7-fluorobenzo[b] thiophene-3-carbonitrile], the IC50 in assay [1] was determined as 3 nM; in assay [2], 3 nM; in assay [3], 0.492 µM.

As to `N#Cc1c(N)sc2c(F)ccc(-c3c(Cl)cc4c(N5CCCCC5)nc(OC[C@@]56CCCN5C[C@H](F)C6)nc4c3F)c12` [Example 26, 2-Amino-4-(6-chloro-8-fluoro-2-(((2R,7aS)-2-fluorotetrahydro-1H-pyrrolizin-7a(5H)-yl)methoxy)-4-(piperidin-1-yl)quinazolin-7-yl)-7-fluorobenzo[6] thiophene-3-carbonitrile], the IC50 in assay [1] is 6 nM; in assay [2], 7 nM; in assay [3] it was 0.601 µM.

For the compound `N#Cc1c(N)sc2c(F)ccc(-c3c(Cl)cc4c(N5CCCCC(F)C5)nc(OC[C@@]56CCCN5C[C@H](F)C6)nc4c3F)c12` (stereo partly drawn) [Example 27, 2-Amino-4-(6-chloro-8-fluoro-4-(3-fluoroazepan-1-yl)-2-(((2R,7aS)-2-fluorotetrahydro-1H-pyrrolizin-7a(5H)-yl)methoxy)quinazolin-7-yl)-7-fluorobenzo[b] thiophene-3-carbonitrile], the IC50 in assay [1] is 2 nM; in assay [2], 2 nM; in assay [3], 0.043 µM.

For `N#Cc1c(N)sc2c(F)ccc(-c3c(Cl)cc4c(N5CCOC[C@H](O)C5)nc(OC[C@@]56CCCN5C[C@H](F)C6)nc4c3F)c12` [Example 30, 2-Amino-4-(6-chloro-8-fluoro-2-(((2R,7aS)-2-fluorotetrahydro-1H-pyrrolizin-7a(5H)-yl)methoxy)-4-((R)-6-hydroxy-1,4-oxazepan-4-yl)quinazolin-7-yl)-7-fluorobenzo[b] thiophene-3-carbonitrile], the IC50 in assay [1] is 0.4 nM; in assay [2], 0.8 nM; in assay [3] it was 0.212 µM.

For the compound `N#Cc1c(N)sc2c(F)ccc(-c3c(Cl)cc4c(N5CCCCCCC5)nc(OC[C@@]56CCCN5C[C@H](F)C6)nc4c3F)c12` [Example 31, 2-Amino-4-(4-(azocan-1-yl)-6-chloro-8-fluoro-2-(((2R,7aS)-2-fluorotetrahydro-1H-pyrrolizin-7a(5H)-yl)methoxy)quinazolin-7-yl)-7-fluorobenzo[b] thiophene-3-carbonitrile], the IC50 turned out to be 1 nM in assay [1], 1 nM in assay [2] and 0.187 µM in assay [3].

Consider `N#Cc1c(N)sc2c(F)ccc(-c3c(Cl)cc4c(N5CCOC[C@@H](O)C5)nc(OC[C@@]56CCCN5C[C@H](F)C6)nc4c3F)c12` [Example 32, 2-Amino-4-(6-chloro-8-fluoro-2-(((2R,7aS)-2-fluorotetrahydro-1H-pyrrolizin-7a(5H)-yl)methoxy)-4-((S)-6-hydroxy-1,4-oxazepan-4-yl)quinazolin-7-yl)-7-fluorobenzo[b] thiophene-3-carbonitrile], for which the figures for the IC50 in assay [1], in assay [2] and in assay [3] were 2 nM, 2 nM and 0.079 µM, respectively.

`N#Cc1c(N)sc2c(F)ccc(-c3c(Cl)cc4c(N5CC6COC(C6)C5)nc(OC[C@@]56CCCN5C[C@H](F)C6)nc4c3F)c12` (stereo partly drawn) [Example 33, 4-(4-(6-Oxa-3-azabicyclo[3.2.1]octan-3-yl)-6-chloro-8-fluoro-2-(((2R,7aS)-2-fluorotetrahydro-1H-pyrrolizin-7a(5H)-yl)methoxy)quinazolin-7-yl)-2-amino-7-fluorobenzo[b] thiophene-3-carbonitrile]: the IC50 in assay [1] was 3 nM; in assay [2], 3 nM; in assay [3] it was 0.285 µM.

For the compound `N#Cc1c(N)sc2c(F)ccc(-c3c(Cl)cc4c(N5CCOCC(F)(F)C5)nc(OC[C@@]56CCCN5C[C@H](F)C6)nc4c3F)c12` [Example 34, 2-Amino-4-(6-chloro-4-(6,6-difluoro-1,4-oxazepan-4-yl)-8-fluoro-2-(((2R,7aS)-2-fluorotetrahydro-1H-pyrrolizin-7a(5H)-yl)methoxy)quinazolin-7-yl)-7-fluorobenzo[b] thiophone-3-carbonitrile], the results for the IC50 in assay [1], in assay [2] and in assay [3] were 4 nM, 4 nM and 0.093 µM, respectively.

With `N#Cc1c(N)sc2c(F)ccc(-c3c(Cl)cc4c(N5CCC[C@@H](O)C5)nc(OC[C@@]56CCCN5C[C@H](F)C6)nc4c3F)c12` [Example 35, 2-Amino-4-(6-chloro-8-fluoro-2-(((2R,7aS)-2-fluorotetrahydro-1H-pyrrolizin-7a(5H)-yl)methoxy)-4-((R)-3-hydroxypiperidin-1-yl)quinazolin-7-yl)-7-fluorobenzo[b] thiophene-3-carbonitrile], the IC50 is 4 nM in assay [1], 5 nM in assay [2] and 0.199 µM in assay [3].

With `N#Cc1c(N)sc2c(F)ccc(-c3c(Cl)cc4c(N5CCC[C@H](O)C5)nc(OC[C@@]56CCCN5C[C@H](F)C6)nc4c3F)c12` [Example 36, 2-Amino-4-(6-chloro-8-fluoro-2-(((2R,7aS)-2-fluorotetrahydro-1H-pyrrolizin-7a(5H)-yl)methoxy)-4-((S)-3-hydroxypiperidin-1-yl)quinazolin-7-yl)-7-fluorobenzo[b] thiophene-3-carbonitrile], the IC50 in assay [1] stood at 5 nM; in assay [2], 6 nM; in assay [3] it was 0.205 µM.

For `CCC1(O)CCCN(c2nc(OC[C@@]34CCCN3C[C@H](F)C4)nc3c(F)c(-c4ccc(F)c5sc(N)c(C#N)c45)c(Cl)cc23)C1` (stereo partly drawn) [Example 37, 2-Amino-4-(6-chloro-4-(3-ethyl-3-hydroxypiperidin-1-yl)-8-fluoro-2-(((2R,7aS)-2-fluorotetrahydro-1H-pyrrolizin-7a(5H)-yl)methoxy)quinazolin-7-yl)-7-fluorobenzo[b] thiophone-3-carbonitrile], the IC50 in assay [1] was found to be 8 nM; in assay [2], 10 nM; in assay [3], 0.859 µM.

Turning to `N#Cc1c(N)sc2c(F)ccc(-c3c(Cl)cc4c(N5CCCC6(CCS(=O)(=O)C6)C5)nc(OC[C@@]56CCCN5C[C@H](F)C6)nc4c3F)c12` (stereo partly drawn) [Example 38, 2-Amino-4-(6-chloro-4-(2,2-dioxido-2-thia-7-azaspiro[4.5]decan-7-yl)-8-fluoro-2-(((2R,7aS)-2-fluorotetrahydro-1H-pyrrolizin-7a(5H)-yl)methoxy)quinazolin-7-yl)-7-fluorobenzo[b] thiophene-3-carbonitrile], the half-maximal inhibitory concentration (IC50) in assay [1] is 10 nM; in assay [2], 10 nM; in assay [3], 0.781 µM.
